Assay results from patent US6346529B1, “Antiviral therapy using thiazine dyes” (Oklahoma Medical Research Foundation, priority 1988, dated 2002).

Assay: Toxicity in Vero cells
Format: cell-based
Conditions: African green monkey
Protocol: The cells dislodged from the flask were generally in clumps and were dispersed by repeated forceful pipetting of the suspension against the surface of the flask. To 1 ml of the well-dispersed cell suspension, 0.2 ml of trypan blue solution was added, and the number of cells were counted using a hemacytomer. Each day for the next 3 days, two of the remaining flasks were harvested in the manner just described for determination of cell number. Only data on day three are presented. This method has previously been described by Schinazi, et al., “Effect of Combination of Acyclovir, and Vidarabine or its 5′-monophosphate on Herpes Simplex Viruses in Cell Culture and in Mice,” Antimicrob. Agents Chemother. 22, 499-507 (1982)). Median-Effect Method: EC50 and IC50 values were obtained by analysis of the data using the median-effect equation (Chou, T., et al., “Quantitative Analysis of Dose-Effect Relationships: The Combined Effects of Multiple Drugs or Enzyme Inhibitors,” Adv. Enz. Regul. 22, 27-55 (1984).

`Nc1nc2c(ncn2COCCO)c(=O)[nH]1` [ACV, Acyclovir] showed an IC50 at 3 days of 1700 µM.
